Assay results: PubChem BioAssay (NCI)
Where “and” joins values, the source holds several entries; their conditions need not be identical. Equal entries are not always repeated.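 The compound was tested at five concentrations on cells cultured in 96-well plates, with a 48-hour exposure period. GI50 = concentration required for 50% inhibition of growth. TGI: total growth inhibition.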

What follows are molecules tested on U251 CNS (assay: DTP human tumour cell line panel, 48 h).
`COc1cc(C#CC(=O)OC/C=C/c2ccc3c(c2)OCO3)cc(OC)c1OC` was tested, and the TGI was over 100 µM. For `O/N=C/C1C(OCc2ccccc2)C(OCc2ccccc2)C(OCc2ccccc2)CN1Cc1ccccc1` (configuration not stated), the TGI was 37.5 µM and > 100 µM. Work on `O=C1NC(=O)C(c2cnc3ccccn23)=C1c1cn2c3c(cc(F)cc13)CN(C(=O)N1CCCCC1)CC2` yielded a GI50 of 1.89 µM and a TGI of 24.3 µM. `Clc1nc2ccccc2nc1CI` was tested, and the GI50 was 7.38 µM and the TGI was 20.8 µM. With `Cn1nc(N)c2cc([C@@H]3Nc4ccc5[nH]ncc5c4[C@H]4C5CCC(C5)[C@@H]34)ccc21` (some centres not stated) the GI50 was 0.618 µM and the TGI was 23.2 µM. Molecule `O=C(O)C1C2C=CC(O2)C1C(=O)NCc1ccccn1` (configuration not stated) has a TGI of over 100 µM. With `O=C(OC(CNc1cc(=O)n(Cc2ccccc2)c(=O)n1Cc1ccccc1)CN1CCCC1)c1ccccc1` (configuration not stated) the GI50 was over 100 µM and the TGI was over 100 µM. In the case of `CCN(CC)CCCC(CNc1ccnc2cc(Cl)ccc12)c1ccc(Cl)cc1` (configuration not stated), the GI50 is reported as 1.54 µM and 0.95 µM and the TGI is reported as 3.01 µM and 2.48 µM. In the case of `CCOC(=O)CCCn1c(SC)nc2[nH]cc(-c3ccccc3)c2c1=O`, the GI50 is reported as 16.8 µM and the TGI is reported as 58.5 µM. `[Cl][Hg][c]1cc(Br)cc(Br)c1` showed a GI50 of 0.441 µM and a TGI of 1.67 µM. In the case of `CCN(CC)CCOc1ccc(-c2nc3cc(Cl)ccc3s2)cc1`, the GI50 is reported as 1.58 µM and the TGI is reported as 2.99 µM. For `C=C1C(=O)O[C@@H]2C[C@@H]1CC/C(C)=C/CC/C(C)=C/CC[C@@]2(C)O`, the GI50 was 18.4 µM and the TGI was 43.6 µM. `CNC(=O)N(C)N=NCCCl` showed a TGI of over 100 µM. With `CCN1CCN(C(c2ccc(C(F)(F)F)cc2)c2ccc3cccnc3c2O)CC1` (configuration not stated) the GI50 was 0.658 µM and the TGI was 11.4 µM. For `COc1ccc(C(C)=O)cc1N1C(=O)C2C(C1=O)C1(c3ccccc3)C(=O)C2(c2ccccc2)C(c2ccc(C)cc2)=C1c1ccc(C)cc1` (configuration not stated), the GI50 was over 100 µM and the TGI was over 100 µM. `O=C1c2cccc(NCCCNCCO)c2C(=O)c2cccc(NCCCNCCO)c21` was tested, and the GI50 was 0.536 µM and 1.4 µM and the TGI was 2.13 µM and 4.46 µM. `NC(=Nc1c([N+](=O)[O-])cnc2ccccc12)N1CCOCC1` showed a TGI of over 100 µM. `CCN(CC)c1ccc2c(c1)OC(N)=C(C#N)C2c1cc(OC)c2c(c1)OCO2` (configuration not stated) was tested, and the GI50 was 0.0408 µM and the TGI was 2.38 µM. `N#CC(=C1C=CC(=NO)C=C1)c1ccccc1` was tested, and the GI50 was 1.45 µM and the TGI was 8.72 µM. `CC(C)=CCNc1ncnc2c1ncn2C1OC(CO)C(O)C1O` (configuration not stated) was tested, and the GI50 was 36.2 µM and the TGI was over 1000 µM. Work on `CCC(C)n1ncn(-c2ccc(N3CCN(c4ccc(OCC5COC(Cn6cncn6)(c6ccc(Cl)cc6Cl)O5)cc4)CC3)cc2)c1=O` (configuration not stated) yielded a GI50 of 4.03 µM and a TGI of over 100 µM. Molecule `CC(C)CCN1c2nc(Nc3cc(F)c(O)c(F)c3)ncc2N(C)C(=O)C1C` (configuration not stated) has a GI50 of 5.55 µM and a TGI of 58.6 µM. `O=C(CNc1ccc(Cl)cc1)Nc1ccc(-c2nc3ccccc3s2)cc1` was tested, and the GI50 was 5.24 µM and the TGI was 10.8 µM. In the case of `CCCCCCCCCCCCOC1C(C(COC2OC(C3COC(C)(C)O3)C3OC(C)(C)OC23)NC(=O)Nc2ccc(C(=O)O)cc2)OC2OC(C)(C)OC21` (configuration not stated), the GI50 is reported as 3.3 µM and the TGI is reported as 11.1 µM. `CCN(CC)CCC(CNc1ccnc2cc(Cl)ccc12)c1ccc(OC)cc1` (configuration not stated) was tested, and the GI50 was 4.91 µM and 3.52 µM and the TGI was 17.2 µM and 11.5 µM. `COc1ccc(/C=C(/C(=O)N2CCN(c3ccccc3)CC2)c2cc(OC)c(OC)c(OC)c2)cc1O` was tested, and the GI50 was 0.445 µM and the TGI was over 100 µM.

Each molecule was assayed on SF-539 CNS (assay: DTP human tumour cell line panel, 48 h).
Molecule `COc1cc(C#CC(=O)OC/C=C/c2ccc3c(c2)OCO3)cc(OC)c1OC` has a TGI of 44.5 µM. `O/N=C/C1C(OCc2ccccc2)C(OCc2ccccc2)C(OCc2ccccc2)CN1Cc1ccccc1` (configuration not stated) gave a TGI of over 100 µM. `O=C1NC(=O)C(c2cnc3ccccn23)=C1c1cn2c3c(cc(F)cc13)CN(C(=O)N1CCCCC1)CC2` was tested, and the GI50 was 2.74 µM and the TGI was 24.4 µM. For `Clc1nc2ccccc2nc1CI`, the GI50 was 2.34 µM and the TGI was 6.27 µM. With `Cn1nc(N)c2cc([C@@H]3Nc4ccc5[nH]ncc5c4[C@H]4C5CCC(C5)[C@@H]34)ccc21` (some centres not stated) the GI50 was 0.333 µM and the TGI was 5.09 µM. In the case of `O=C(O)C1C2C=CC(O2)C1C(=O)NCc1ccccn1` (configuration not stated), the TGI is reported as over 100 µM. Work on `O=C(OC(CNc1cc(=O)n(Cc2ccccc2)c(=O)n1Cc1ccccc1)CN1CCCC1)c1ccccc1` (configuration not stated) yielded a GI50 of over 100 µM and a TGI of over 100 µM. `CCN(CC)CCCC(CNc1ccnc2cc(Cl)ccc12)c1ccc(Cl)cc1` (configuration not stated) was tested, and the GI50 was 1.23 µM and 1.52 µM and the TGI was 2.67 µM and 3.07 µM. For `CCOC(=O)CCCn1c(SC)nc2[nH]cc(-c3ccccc3)c2c1=O`, the GI50 was 18.4 µM and the TGI was 46.1 µM. Molecule `[Cl][Hg][c]1cc(Br)cc(Br)c1` has a GI50 of 1.65 µM and a TGI of 3.31 µM. `CCN(CC)CCOc1ccc(-c2nc3cc(Cl)ccc3s2)cc1` gave a GI50 of 1.6 µM and a TGI of 2.94 µM. With `C=C1C(=O)O[C@@H]2C[C@@H]1CC/C(C)=C/CC/C(C)=C/CC[C@@]2(C)O` the GI50 was 22.3 µM and the TGI was 42.5 µM. In the case of `CNC(=O)N(C)N=NCCCl`, the TGI is reported as over 100 µM. `CCN1CCN(C(c2ccc(C(F)(F)F)cc2)c2ccc3cccnc3c2O)CC1` (configuration not stated) showed a GI50 of 1.68 µM and a TGI of 10.1 µM. Molecule `COc1ccc(C(C)=O)cc1N1C(=O)C2C(C1=O)C1(c3ccccc3)C(=O)C2(c2ccccc2)C(c2ccc(C)cc2)=C1c1ccc(C)cc1` (configuration not stated) has a GI50 of over 100 µM and a TGI of over 100 µM. In the case of `O=C1c2cccc(NCCCNCCO)c2C(=O)c2cccc(NCCCNCCO)c21`, the TGI is reported as 4.13 µM and 2.84 µM. For `NC(=Nc1c([N+](=O)[O-])cnc2ccccc12)N1CCOCC1`, the TGI was over 100 µM. `CCN(CC)c1ccc2c(c1)OC(N)=C(C#N)C2c1cc(OC)c2c(c1)OCO2` (configuration not stated) showed a GI50 of 0.0271 µM and a TGI of 0.0806 µM. In the case of `N#CC(=C1C=CC(=NO)C=C1)c1ccccc1`, the GI50 is reported as 0.92 µM and the TGI is reported as 3.37 µM. `CC(C)=CCNc1ncnc2c1ncn2C1OC(CO)C(O)C1O` (configuration not stated) was tested, and the GI50 was 2.22 µM and the TGI was 7.65 µM. Work on `CCC(C)n1ncn(-c2ccc(N3CCN(c4ccc(OCC5COC(Cn6cncn6)(c6ccc(Cl)cc6Cl)O5)cc4)CC3)cc2)c1=O` (configuration not stated) yielded a GI50 of 7.73 µM and a TGI of over 100 µM. In the case of `CC(C)CCN1c2nc(Nc3cc(F)c(O)c(F)c3)ncc2N(C)C(=O)C1C` (configuration not stated), the GI50 is reported as 4.26 µM and the TGI is reported as 21.8 µM. In the case of `O=C(CNc1ccc(Cl)cc1)Nc1ccc(-c2nc3ccccc3s2)cc1`, the GI50 is reported as 4.93 µM and the TGI is reported as 9.79 µM. `CCCCCCCCCCCCOC1C(C(COC2OC(C3COC(C)(C)O3)C3OC(C)(C)OC23)NC(=O)Nc2ccc(C(=O)O)cc2)OC2OC(C)(C)OC21` (configuration not stated) was tested, and the GI50 was 1.72 µM and the TGI was 3.39 µM. `CCN(CC)CCC(CNc1ccnc2cc(Cl)ccc12)c1ccc(OC)cc1` (configuration not stated) was tested, and the GI50 was 1.56 µM and 1.7 µM and the TGI was 3.17 µM and 3.6 µM. Molecule `COc1ccc(/C=C(/C(=O)N2CCN(c3ccccc3)CC2)c2cc(OC)c(OC)c(OC)c2)cc1O` has a GI50 of 0.205 µM and a TGI of 0.708 µM.

The molecules below were run on SK-MEL-5 melanoma (assay: DTP human tumour cell line panel, 48 h).
For `COc1cc(C#CC(=O)OC/C=C/c2ccc3c(c2)OCO3)cc(OC)c1OC`, the TGI was 32.8 µM. `O/N=C/C1C(OCc2ccccc2)C(OCc2ccccc2)C(OCc2ccccc2)CN1Cc1ccccc1` (configuration not stated) was tested, and the TGI was 23.9 µM. `O=C1NC(=O)C(c2cnc3ccccn23)=C1c1cn2c3c(cc(F)cc13)CN(C(=O)N1CCCCC1)CC2` was tested, and the GI50 was 2.81 µM and the TGI was 16.8 µM. For `Clc1nc2ccccc2nc1CI`, the GI50 was 2.6 µM and the TGI was 7.82 µM. Work on `Cn1nc(N)c2cc([C@@H]3Nc4ccc5[nH]ncc5c4[C@H]4C5CCC(C5)[C@@H]34)ccc21` (some centres not stated) yielded a GI50 of 0.363 µM and a TGI of 12.7 µM. `O=C(O)C1C2C=CC(O2)C1C(=O)NCc1ccccn1` (configuration not stated) gave a TGI of over 100 µM. In the case of `O=C(OC(CNc1cc(=O)n(Cc2ccccc2)c(=O)n1Cc1ccccc1)CN1CCCC1)c1ccccc1` (configuration not stated), the GI50 is reported as over 100 µM and the TGI is reported as over 100 µM. Work on `CCN(CC)CCCC(CNc1ccnc2cc(Cl)ccc12)c1ccc(Cl)cc1` (configuration not stated) yielded a GI50 of 1.13 µM and a TGI of 2.4 µM. Molecule `CCOC(=O)CCCn1c(SC)nc2[nH]cc(-c3ccccc3)c2c1=O` has a GI50 of 12.9 µM and a TGI of 25.7 µM. In the case of `[Cl][Hg][c]1cc(Br)cc(Br)c1`, the GI50 is reported as 1.54 µM and the TGI is reported as 3.04 µM. For `CCN(CC)CCOc1ccc(-c2nc3cc(Cl)ccc3s2)cc1`, the GI50 was 1.54 µM and the TGI was 2.88 µM. `C=C1C(=O)O[C@@H]2C[C@@H]1CC/C(C)=C/CC/C(C)=C/CC[C@@]2(C)O` was tested, and the GI50 was 16.2 µM and the TGI was 36.4 µM. For `CNC(=O)N(C)N=NCCCl`, the TGI was over 100 µM. With `CCN1CCN(C(c2ccc(C(F)(F)F)cc2)c2ccc3cccnc3c2O)CC1` (configuration not stated) the GI50 was 2.35 µM and the TGI was 7.83 µM.
